Results from patent US4537777A, “A52688 Antibiotics and process for their production” (priority 1983, dated 1985).
Like-named read-outs stand apart in the source and are kept apart here.

Key:
[1] = test system: Trichophyton mentagroprophytes; assay: standard disc-plate assay; assay type: cell-based; conditions: read-out: Zone Diameters
[2] = test system: Bacillus stereothermophilus; assay: standard disc-plate assay; assay type: cell-based; conditions: read-out: Zone Diameters
Pseudomonas solanacearum = assay: microbe, parasite or virus in culture; assay type: cell-based; conditions: Ralstonia solanacearum; conc 0.1 mg/ml; read-out: Zone Diameters
[3] = test system: Saccharomyces pastorianus; assay: standard disc-plate assay; assay type: cell-based; conditions: read-out: Zone Diameters
Mycobacterium avium = assay: standard disc-plate assay; assay type: cell-based; conditions: read-out: Zone Diameters
Proteus vulgaris = assay: standard disc-plate assay; assay type: cell-based; conditions: read-out: Zone Diameters
Candida albicans = assay: standard disc-plate assay; assay type: cell-based; conditions: read-out: Zone Diameters
Staphylococcus aureus = assay: standard disc-plate assay; assay type: cell-based; conditions: read-out: Zone Diameters
Micrococcus luteus = assay: standard disc-plate assay; assay type: cell-based; conditions: read-out: Zone Diameters
Serratia marcescens = assay: standard disc-plate assay; assay type: cell-based; conditions: read-out: Zone Diameters
Salmonella gallinarium = assay: standard disc-plate assay; assay type: cell-based; conditions: read-out: Zone Diameters
Neurospora crassa = assay: standard disc-plate assay; assay type: cell-based; conditions: read-out: Zone Diameters
Escherichia coli = assay: standard disc-plate assay; assay type: cell-based
Experimental: In Table IX the standard discplate-assay activity of the A52688 factors is summarized. Activity is measured as the diameter (in mm) of the observed zone of inhibition; the diameter of the disc used in each case was 6.35 mm.

Pseudomonas aeruginosa = assay: standard disc-plate assay; assay type: cell-based; conditions: read-out: Zone Diameters
Bacillus subtilis = assay: standard disc-plate assay; assay type: cell-based; conditions: read-out: Zone Diameters
Adenocarcinoma 755 = assay: murine-transplanted tumor adenocarcinoma 755 in mice; assay type: in vivo; conditions: daily for 10 days
Experimental: A52688 factors A, C, D, E, F, G, H, J and K and the specified acyl esters of factors A, C, D, E, G, H, J and K are especially useful as oncolytic agents.
Table X summarizes the results of experiments in which mice bearing the murine-transplanted tumor adenocarcinoma 755 were treated with compounds of this invention. In each test the compound was administered by the intraperitoneal route at specified dose levels. The compound was administered over a ten-day period, either on a daily basis or on days one, five and nine, as indicated.

acute toxicity in mice = conditions: mouse, in vivo, ip, intraperitoneal, formulated in aqueous PVP, read-out: Intraperitoneal LD50
Excerpt: ^a Compounds formulated in aqueous PVP
^b Route test compound administered

[4] = read-out: Zone Diameters, conc 0.1 mg/ml, disc 6.35 mm
[5] = read-out: Zone Diameters, in minimal medium, conc 0.1 mg/ml, disc 6.35 mm
[6] = 0.25 mg/kg i.p., of 10 mice tested (9 for factor E)
[7] = 0.50 mg/kg i.p., of 10 mice tested (8 for factor E)

For `[C-]#[N+]C(=CC1=C[C@@H](OC)[C@@H](O)CC1)C(=CC1CCC(OC(=O)C=C(C)C)CC1)[N+]#[C-]` (relative stereo) [Factor J], which zone of inhibition at 100 µg/mL [1] is on record?
The zone of inhibition at 100 µg/mL was 37 mm.

What about the zone of inhibition at 100 µg/mL [2] of the same compound?
Its zone of inhibition at 100 µg/mL is 25 mm.

What about the zone of inhibition at 100 µg/mL (Pseudomonas solanacearum) of the same compound?
The zone of inhibition at 100 µg/mL was 21 mm.

And the zone of inhibition at 100 µg/mL [3]?
The zone of inhibition at 100 µg/mL was 19 mm.

What about the zone of inhibition at 100 µg/mL (Mycobacterium avium) of the same compound?
Its zone of inhibition at 100 µg/mL is 14 mm.

And the zone of inhibition at 100 µg/mL (Proteus vulgaris)?
The zone of inhibition at 100 µg/mL was 22 mm.

What about the zone of inhibition at 100 µg/mL (Candida albicans) of the same compound?
The zone of inhibition at 100 µg/mL was 22 mm.

What about the zone of inhibition at 100 µg/mL (Staphylococcus aureus) of the same compound?
Its zone of inhibition at 100 µg/mL is 23 mm.

What about the zone of inhibition at 100 µg/mL (Micrococcus luteus) of the same compound?
Its zone of inhibition at 100 µg/mL is 29 mm.

What about the zone of inhibition at 100 µg/mL (Serratia marcescens) of the same compound?
The zone of inhibition at 100 µg/mL was 12 mm.

What about the zone of inhibition at 100 µg/mL (Salmonella gallinarium) of the same compound?
Its zone of inhibition at 100 µg/mL is 17 mm.

And the zone of inhibition at 100 µg/mL (Neurospora crassa)?
Its zone of inhibition at 100 µg/mL is 36 mm.

And the zone of inhibition at 100 µg/mL (Escherichia coli; [4])?
Its zone of inhibition at 100 µg/mL is 15 mm.

And the zone of inhibition at 100 µg/mL (Escherichia coli; [5])?
The zone of inhibition at 100 µg/mL was 13 mm.

What about the zone of inhibition at 100 µg/mL (Pseudomonas aeruginosa) of the same compound?
The zone of inhibition at 100 µg/mL was 12 mm.

And the zone of inhibition at 100 µg/mL (Bacillus subtilis)?
Its zone of inhibition at 100 µg/mL is 19 mm.

What does the source list for `[C-]#[N+]C(=CC1=C[C@@H](O)[C@@H](O)CC1)C(=CC1CCC(OC(=O)C=C(C)C)CC1)[N+]#[C-]` (relative stereo) [Factor E]?
zone of inhibition at 100 µg/mL [1]: 43 mm; zone of inhibition at 100 µg/mL [2]: 30 mm; zone of inhibition at 100 µg/mL (Pseudomonas solanacearum): 24 mm; zone of inhibition at 100 µg/mL [3]: 20 mm; zone of inhibition at 100 µg/mL (Mycobacterium avium): 15 mm; zone of inhibition at 100 µg/mL (Proteus vulgaris): 21 mm; zone of inhibition at 100 µg/mL (Candida albicans): 29 mm; Percent Tumor Inhibition (Adenocarcinoma 755; 0.25 mg/kg i.p.): 22%; Toxic Deaths (Adenocarcinoma 755; [6]): 0; Percent Tumor Inhibition (Adenocarcinoma 755; 0.50 mg/kg i.p.): 74%; Toxic Deaths (Adenocarcinoma 755; [7]): 3; Percent Tumor Inhibition (Adenocarcinoma 755; 1.00 mg/kg i.p.): toxic; Toxic Deaths (Adenocarcinoma 755; 1.00 mg/kg i.p., of 10 (factor E) or 9 (factor F) mice tested): 10; zone of inhibition at 100 µg/mL (Staphylococcus aureus): 21 mm; zone of inhibition at 100 µg/mL (Micrococcus luteus): 24 mm; zone of inhibition at 100 µg/mL (Serratia marcescens): 17 mm; LD50 (acute toxicity in mice): 3.54 mg/kg; zone of inhibition at 100 µg/mL (Salmonella gallinarium): 19 mm; zone of inhibition at 100 µg/mL (Neurospora crassa): 34 mm; zone of inhibition at 100 µg/mL (Escherichia coli; [4]): 18 mm; zone of inhibition at 100 µg/mL (Escherichia coli; [5]): 16 mm; zone of inhibition at 100 µg/mL (Pseudomonas aeruginosa): 17 mm; zone of inhibition at 100 µg/mL (Bacillus subtilis): 29 mm

Which results are given for `[C-]#[N+]C(=CC1=C[C@@H](O)[C@H](O)CC1)C(=CC1CCC(O)CC1)[N+]#[C-]` (relative stereo) [Factor C]?
zone of inhibition at 100 µg/mL [1]: 15 mm; zone of inhibition at 100 µg/mL [2]: 35 mm; zone of inhibition at 100 µg/mL (Pseudomonas solanacearum): 20 mm; zone of inhibition at 100 µg/mL [3]: 15 mm; zone of inhibition at 100 µg/mL (Mycobacterium avium): 18 mm; zone of inhibition at 100 µg/mL (Proteus vulgaris): 26 mm; zone of inhibition at 100 µg/mL (Candida albicans): 16 mm; Percent Tumor Inhibition (Adenocarcinoma 755; 0.125 mg/kg i.p.): 60%; Toxic Deaths (Adenocarcinoma 755; 0.125 mg/kg i.p., of 10 mice tested): 0; Percent Tumor Inhibition (Adenocarcinoma 755; 0.25 mg/kg i.p.): 47%; Toxic Deaths (Adenocarcinoma 755; [6]): 0; Percent Tumor Inhibition (Adenocarcinoma 755; 0.50 mg/kg i.p.): 72%; Toxic Deaths (Adenocarcinoma 755; [7]): 5; zone of inhibition at 100 µg/mL (Staphylococcus aureus): 16 mm; zone of inhibition at 100 µg/mL (Micrococcus luteus): 33 mm; zone of inhibition at 100 µg/mL (Serratia marcescens): 15 mm; LD50 (acute toxicity in mice): < 2.34 mg/kg; zone of inhibition at 100 µg/mL (Salmonella gallinarium): 38 mm; zone of inhibition at 100 µg/mL (Neurospora crassa): 22 mm; zone of inhibition at 100 µg/mL (Escherichia coli; [4]): 24 mm; zone of inhibition at 100 µg/mL (Escherichia coli; [5]): 20 mm; zone of inhibition at 100 µg/mL (Bacillus subtilis): 23 mm

With `O=CNC=Cc1ccc(O)cc1` [Factor B] as the compound, how does the zone of inhibition at 100 µg/mL ([1]; conc 0.1 mg/ml, disc 6.35 mm) read?
Its zone of inhibition at 100 µg/mL is 19 mm.

And the zone of inhibition at 100 µg/mL ([2]; conc 0.1 mg/ml, disc 6.35 mm)?
Its zone of inhibition at 100 µg/mL is 21 mm.

What about the zone of inhibition at 100 µg/mL ([3]; conc 0.1 mg/ml, disc 6.35 mm, ^b overgrowth: factors B, C, F) of the same compound?
The zone of inhibition at 100 µg/mL was 14 mm.

And the zone of inhibition at 100 µg/mL (Candida albicans; conc 0.1 mg/ml, disc 6.35 mm)?
The zone of inhibition at 100 µg/mL was 11 mm.

What about the zone of inhibition at 100 µg/mL (Staphylococcus aureus; conc 0.1 mg/ml, disc 6.35 mm, ^b overgrowth: factor B) of the same compound?
The zone of inhibition at 100 µg/mL was 25 mm.

What about the zone of inhibition at 100 µg/mL (Micrococcus luteus; conc 0.1 mg/ml, disc 6.35 mm) of the same compound?
Its zone of inhibition at 100 µg/mL is 22 mm.

And the LD50 (acute toxicity in mice)?
Its LD50 is over 75 mg/kg.

And the zone of inhibition at 100 µg/mL (Neurospora crassa; conc 0.1 mg/ml, disc 6.35 mm)?
Its zone of inhibition at 100 µg/mL is 24 mm.

What about the zone of inhibition at 100 µg/mL (Bacillus subtilis; conc 0.1 mg/ml, disc 6.35 mm) of the same compound?
The zone of inhibition at 100 µg/mL was 21 mm.
